Results on five compounds are retold here after patent US7354912B2, “Unique compositions of zwitterionic phospholipids and bisphosphonates and use of the compositions as bisphosphate delivery systems with reduced GI toxicity” (Board of Reagents, University of Texas System, priority 2000, dated 2008).

Molecules are shown by their SMILES. Marks after values point to notes of the source that are not given here.

The subject of data set [1] is gastric mucosa. The data set can be described thus: acute bisphosphonate/indomethacin gastric injury model of Blank et al. (gastric lesion score, gastric bleeding). Format: in vivo, rat. Conditions: for Gastric Lesion Score (lesioned area, mm^2) / order of gastrotoxicity (FIG. 4): rats; for Gastric Lesion Score (lesioned area, mm^2): Indo 40 mg/kg, pamidronate 300 mg/kg, PC-pamidronate 1:1 weight ratio, n = 4-5 rats/group; for order of gastrotoxicity (FIG. 4): comparison of three bisphosphonates. An excerpt: (§1) The experiments investigated the effects of different bisphosphonates on the surface hydrophobicity and phospholipid concentration of the antral mucosa, using the animal model of Blank et. al. (Blank M A, Ems B L, Gibson G W, Myers W R, Berman S K, Phipps R J, Smith P N, Dig Dis Sci, 42, 281-288 (1997)), and compared the effects of these surface changes to the gastric toxicity of these drugs.
Looking at FIG. 2, an antrum lesion score is plotted against time.
The model and the ability for phospholipids to inhibit bisphosphonate GI toxicity was investigated in pilot preclinical studies using the rodent model of Blank et. al. (Blank M A, Ems B L, Gibson G W, Myers W R, Berman S K, Phipps R J, Smith P N, Dig Dis Sci, 42, 281-288 (1997)), where the bisphosphonate test drug was administered simultaneously with indomethacin.
60 mg of Phospholipon 90G (90-93% pure PC) was dissolved in chloroform in a tube. […] The organic solvent was removed under nitrogen and resulting PC material was left under vacuum overnight to form a PC film in the tube. […] The solution was then added to the dried PC film in the tube. The mixture was sonicated in a both type sonicator at room temperature for 5 min., prior to administration to fasted rats.
20 mg of dipalmitoyl PC (DPPC) and Phospholipon 90 G were dissolved in chloroform in separate tubes, and dried as described in Example 1.
60 mg and 240 mg of Phospholipon 90G were dissolved in chloroform and dried as described in Example 1 in separate tubes.

Data set [2] relates to gastric mucosa. To be noted: rats, intragastric high doses, with indomethacin; cited from earlier work.
The subject of data set [3] is mucosae of the gastric body and antrum. Conditions: increasing doses over a 4 week period in rats; macroscopic and histological; cited from earlier work.
In data set [4] the test system is aspirin-induced gastric erosions. To be noted: 10 mg and 40 mg doses; cited from earlier work.
The subject of data set [5] is gastric mucosa. The data set is described as follows: surface hydrophobicity and phospholipid (PC) concentration of the antral/gastric mucosa.
Text: as §1

The conditions of data set [6]: healthy subjects, up to 2 weeks, 40 mg or 10 mg; cited from earlier work.
Data set [7] has as its system experimentally induced gastric ulcers. Conditions: rats; cited from earlier work.
Data set [8] concerns gastric mucosa. The data set is described as follows: histological studies of gastric mucosa. Conditions: rat, in vivo.

Consider `COc1ccc2c(c1)c(CC(=O)O)c(C)n2C(=O)c1ccc(Cl)cc1` [Indomethacin], for which the “Gastric Lesion Score (lesioned area, mm^2)” value in the data set with gastric mucosa [1] turned out to be 0 ± 0 mm^2.
As to `NCCC(O)(P(=O)(O)O)P(=O)(O)O` [Pamidronate, 3-amino-1-hydroxypropylidene-1,1-bisphosphonic acid], the “irritation of the gastric mucosa (comparison of bisphosphonates)” value in the data set on gastric mucosa [2] is given as “more irritating”. In addition, the “gastric lesions (antrum lesion score, FIG. 2)” value in the data set on gastric mucosa [1] (rat stomach, over a 4 hr period, in combination with indomethacin) was “induced lesions in both the antrum and body of the rat stomach”. For the same compound, in the data set on gastric mucosa [1], the “order of gastrotoxicity (FIG. 4)” value is “pamidronate>>alendronate>risedronate” and the “Gastric Lesion Score (lesioned area, mm^2)” value is 62 ± 11* mm^2.
As for `NCCCC(O)(P(=O)(O)O)P(=O)(O)O` [alendronate, 4-amino-1-hydroxybutylidene-1,1-bisphosphonic acid], the “injurious effect on mucosae of the gastric body and antrum” value (shortened to “injurious effect on mucosae”) in data set [3] is on record as “dose-dependent injurious effect”. In data set [4], the “rate of healing of aspirin-induced gastric erosions” value is reported as “significantly retarded”. Also, the “order of ability to attenuate the stomach's hydrophobic phospholipid barrier property (FIG. 5)” value in the data set on gastric mucosa [5] (rat, in vivo) was “pamidronate>>alendronate>risedronate”. Further, in data set [6], the “volunteers who developed one or more gastric ulcers” value is given as 10-20% and the “volunteers with observable gastric erosions” value was 40-60%. In addition, the “healing of experimentally induced gastric ulcers” value in data set [7] is reported as “significantly delayed the healing”.
As to `CC(O)(P(=O)(O)O)P(=O)(O)O` [etidronate, 1-hydroxyethylidene-1,1-bisphosphonic acid], in data set [3], the “injurious effect on mucosae” value is recorded as “dose-dependent injurious effect”.
With `O=P(O)(O)C(O)(Cc1cccnc1)P(=O)(O)O` [risedronate, I-hydroxy-2-(3-pyridyl) ethylidene-1,(3-pyridyl) ethylidene-1,1-bisphosphonic acid], the “injurious effect on mucosae” value in data set [3] is listed as “dose-dependent injurious effect”. Moreover, the “order of ability to attenuate the stomach's hydrophobic phospholipid barrier property (FIG. 5)” value in the data set on gastric mucosa [5] (same order as gastrotoxicity maintained) is “pamidronate>>alendronate>risedronate”. Moreover, the “surface injury to the gastric mucosa (histology)” value in the data set with gastric mucosa [8] is recorded as “induced some surface injury”. Further, the “order of gastrotoxicity (FIG. 4)” value in the data set with gastric mucosa [1] is listed as “pamidronate>>alendronate>risedronate”.
